Assay results: US11267825B2 (AICURIS GMBH & CO. KG, priority 2017, dated 2022)

Tests used:
HBV core protein = HBV core protein (UniProt P03146); assay type: biochemical; conditions: read-out: Assembly Activity (IC50); BODIPY-FL labelled core protein, assembly started with NaCl, read after 6 min
Outline: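 Compounds tested at 8 concentrations in 0.5-log steps from 100, 31.6 or 10 μM against 1.0–2.0 μM BODIPY-FL-labelled Cys150 core dimers (residues 1–149), 50 mM HEPES pH 7.5. NaCl ([…] final) triggered assembly; quenching read at 6 min, 477/525 nm, with 2.5 M and 0 M NaCl as controls; EC50 by nonlinear fit.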

HBV = assay: Determination of HBV DNA from the supernatants of HepAD38 cells (anti-HBV activity); assay type: cell-based, hepatitis B virus; conditions: Hepatitis B virus, 144 h; HBV DNA in HepAD38 supernatant at day 6; read-out: Cell Activity (EC50)
Outline: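 EC50 values were obtained by non-linear regression of HBV DNA copy numbers measured by qPCR against pCH-9/3091 plasmid standards. The DNA came from filtered supernatants collected on day 6. Before that, tetracycline-withdrawn HepAD38 cells had been exposed to serial half-log compound dilutions, with tetracycline-treated cells as the non-producing control.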

HBV core protein, sequence (P03146 whole entry, looked up, the tested form may be a part): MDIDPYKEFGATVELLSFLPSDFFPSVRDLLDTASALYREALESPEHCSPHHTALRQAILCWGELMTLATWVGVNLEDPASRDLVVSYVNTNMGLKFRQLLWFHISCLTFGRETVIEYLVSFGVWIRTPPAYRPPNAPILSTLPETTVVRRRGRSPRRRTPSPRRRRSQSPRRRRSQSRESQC

| Compound | IC50 (HBV core protein) | EC50 (HBV) |
| --- | --- | --- |
| N#Cc1cccc2[nH]c(C(=O)N3CCc4nc(NCC5CCOC5)sc4C3)cc12 (stereo not shown) [Example 104, 5-(4-cyano-1H-indole-2-carbonyl)-N-[(oxolan-3-yl)methyl]-4H,5H,6H,7H-[1,3]thiazolo[5,4-c]pyridin-2-amine] | 5 to 10 µM | 1 to 10 µM |
| O=C(c1cc2c(F)c(F)c(F)cc2[nH]1)N1CCc2nc(NCC3CCOC3)sc2C1 (stereo not shown) [Example 105, 5-(4,5,6-trifluoro-1H-indole-2-carbonyl)-N-[(oxolan-3-yl)methyl]-4H,5H,6H,7H-[1,3]thiazolo[5,4-c]pyridin-2-amine] | < 5 µM | < 1 µM |
| O=C(c1cc2c(F)cc(F)c(F)c2[nH]1)N1CCc2nc(NCC3CCOC3)sc2C1 (stereo not shown) [Example 106, 5-(4,6,7-trifluoro-1H-indole-2-carbonyl)-N-[(oxolan-3-yl)methyl]-4H,5H,6H,7H-[1,3]thiazolo[5,4-c]pyridin-2-amine] | < 5 µM | < 1 µM |
| CC1Cc2nc(N)sc2CN1C(=O)c1cc2ccccc2[nH]1 (stereo not shown) [Example 107, 5-(1H-indole-2-carbonyl)-6-methyl-4H,5H,6H,7H-[1,3]thiazolo[5,4-c]pyridin-2-amine] | < 5 µM | < 1 µM |
| CC1c2sc(N)nc2CCN1C(=O)c1cc2ccccc2[nH]1 (stereo not shown) [Example 109, 5-(1H-indole-2-carbonyl)-4-methyl-4H,5H,6H,7H-[1,3]thiazolo[5,4-c]pyridin-2-amine] | < 100 µM | < 100 µM |
| CN(CC1CCOC1)c1nc2c(s1)CN(C(=O)c1cc3ccccc3[nH]1)CC2 (stereo not shown) [Example 110, 5-(1H-indole-2-carbonyl)-N-methyl-N-[(oxolan-3-yl)methyl]-4H,5H,6H,7H-[1,3]thiazolo[5,4-c]pyridin-2-amine] | < 100 µM | 1 to 10 µM |
| O=C(c1cc2c(F)cc(F)cc2[nH]1)N1CCc2nc(NCCO)sc2C1 [Example 111, 2-{[5-(4,6-difluoro-1H-indole-2-carbonyl)-4H,5H,6H,7H-[1,3]thiazolo[5,4-c]pyridin-2-yl]amino}ethan-1-ol] | < 5 µM | < 1 µM |
| O=C(c1cc2c(F)c(F)ccc2[nH]1)N1CCc2nc(NCC3CCOC3)sc2C1 (stereo not shown) [Example 112, 5-(4,5-difluoro-1H-indole-2-carbonyl)-N-[(oxolan-3-yl)methyl]-4H,5H,6H,7H-[1,3]thiazolo[5,4-c]pyridin-2-amine] | < 5 µM | < 1 µM |
| O=C(c1cc2ccc(Br)cc2[nH]1)N1CCc2nc(NCC3CCOC3)sc2C1 (stereo not shown) [Example 113, 5-(6-bromo-1H-indole-2-carbonyl)-N-[(oxolan-3-yl)methyl]-4H,5H,6H,7H-[1,3]thiazolo[5,4-c]pyridin-2-amine] | < 5 µM | < 1 µM |
| Cc1ccc(F)c2[nH]c(C(=O)N3CCc4nc(NCC5CCOC5)sc4C3)cc12 (stereo not shown) [Example 114, 5-(7-fluoro-4-methyl-1H-indole-2-carbonyl)-N-[(oxolan-3-yl)methyl]-4H,5H,6H,7H-[1,3]thiazolo[5,4-c]pyridin-2-amine] | 5 to 10 µM | < 1 µM |
| CCc1cccc2[nH]c(C(=O)N3CCc4nc(NCC5CCOC5)sc4C3)cc12 (stereo not shown) [Example 115, 5-(4-ethyl-1H-indole-2-carbonyl)-N-[(oxolan-3-yl)methyl]-4H,5H,6H,7H-[1,3]thiazolo[5,4-c]pyridin-2-amine] | < 5 µM | < 1 µM |
| O=C(c1cc2c(Cl)ccc(F)c2[nH]1)N1CCc2nc(NCC3CCOC3)sc2C1 (stereo not shown) [Example 116, 5-(4-chloro-7-fluoro-1H-indole-2-carbonyl)-N-[(oxolan-3-yl)methyl]-4H,5H,6H,7H-[1,3]thiazolo[5,4-c]pyridin-2-amine] | 5 to 10 µM | < 1 µM |
| N#Cc1ccc(F)c2[nH]c(C(=O)N3CCc4nc(NCC5CCOC5)sc4C3)cc12 (stereo not shown) [Example 117, 7-fluoro-2-(2-{[(oxolan-3-yl)methyl]amino}-4H,5H,6H,7H-[1,3]thiazolo[5,4-c]pyridine-5-carbonyl)-1H-indole-4-carbonitrile] | < 100 µM | 1 to 10 µM |
| O=C(c1cc2ccccc2[nH]1)N1CCc2nc(NCC(F)(F)F)sc2C1 [Example 118, 5-(1H-indole-2-carbonyl)-N-(2,2,2-trifluoroethyl)-4H,5H,6H,7H-[1,3]thiazolo[5,4-c]pyridin-2-amine] | < 100 µM | < 1 µM |
| O=C(c1cc2c(F)cc(F)cc2[nH]1)N1CCc2nc(NCC3CCOC3)sc2C1 (stereo not shown) [Example 119, 5-(4,6-difluoro-1H-indole-2-carbonyl)-N-[(oxolan-3-yl)methyl]-4H,5H,6H,7H-[1,3]thiazolo[5,4-c]pyridin-2-amine] | < 5 µM | < 1 µM |
| Cc1cc(F)cc2[nH]c(C(=O)N3CCc4nc(NCC5CCOC5)sc4C3)cc12 (stereo not shown) [Example 120, 5-(6-fluoro-4-methyl-1H-indole-2-carbonyl)-N-[(oxolan-3-yl)methyl]-4H,5H,6H,7H-[1,3]thiazolo[5,4-c]pyridin-2-amine] | < 5 µM | < 1 µM |

| Compound | IC50 (HBV core protein) | EC50 (HBV) |
| --- | --- | --- |
| O=C(c1cc2c(Cl)cccc2[nH]1)N1CCc2nc(NCC3CCOC3)sc2C1 (stereo not shown) [Example 121, 5-(4-chloro-1H-indole-2-carbonyl)-N-[(oxolan-3-yl)methyl]-4H,5H,6H,7H-[1,3]thiazolo[5,4-c]pyridin-2-amine] | < 5 µM | < 1 µM |
| O=C(c1cc2c(F)ccc(F)c2[nH]1)N1CCc2nc(NCC3CCOC3)sc2C1 (stereo not shown) [Example 122, 5-(4,7-difluoro-1H-indole-2-carbonyl)-N-[(oxolan-3-yl)methyl]-4H,5H,6H,7H-[1,3]thiazolo[5,4-c]pyridin-2-amine] | < 5 µM | < 1 µM |
| O=C(c1cc2c(C(F)(F)F)cccc2[nH]1)N1CCc2nc(NCC3CCOC3)sc2C1 (stereo not shown) [Example 123, 5-(4-(trifluoromethyl)-1H-indole-2-carbonyl)-N-[(oxolan-3-yl)methyl]-4H,5H,6H,7H-[1,3]thiazolo[5,4-c]pyridin-2-amine] | 5 to 10 µM | < 1 µM |
| Cc1cccc2[nH]c(C(=O)N3CCc4nc(NCC5CCOC5)sc4C3)cc12 (stereo not shown) [Example 124, 5-(4-methyl-1H-indole-2-carbonyl)-N-[(oxolan-3-yl)methyl]-4H,5H,6H,7H-[1,3]thiazolo[5,4-c]pyridin-2-amine] | < 5 µM | < 1 µM |
| O=C(c1cc2ccc(Cl)cc2[nH]1)N1CCc2nc(NCC3CCOC3)sc2C1 (stereo not shown) [Example 125, 5-(6-chloro-1H-indole-2-carbonyl)-N-[(oxolan-3-yl)methyl]-4H,5H,6H,7H-[1,3]thiazolo[5,4-c]pyridin-2-amine] | < 5 µM | < 1 µM |
| O=C(c1cc2ccccc2[nH]1)N1CCc2nc(NCC3COC3)sc2C1 [Example 126, 5-(1H-indole-2-carbonyl)-N-[(oxetan-3-yl)methyl]-4H,5H,6H,7H-[1,3]thiazolo[5,4-c]pyridin-2-amine] | 5 to 10 µM | 1 to 10 µM |
| O=C(c1cc2ccccc2[nH]1)N1CCc2nc(NC3COC3)sc2C1 [Example 127, 5-(1H-indole-2-carbonyl)-N-(oxetan-3-yl)-4H,5H,6H,7H-[1,3]thiazolo[5,4-c]pyridin-2-amine] | < 5 µM | < 1 µM |
| CC(C)Nc1nc2c(s1)CN(C(=O)c1cc3ccccc3[nH]1)CC2 [Example 128, 5-(1H-indole-2-carbonyl)-N-(propan-2-yl)-4H,5H,6H,7H-[1,3]thiazolo[5,4-c]pyridin-2-amine] | < 5 µM | < 1 µM |
| O=C(c1cc2ccccc2[nH]1)N1CCc2nc(NCCCO)sc2C1 [Example 129, 3-{[5-(1H-indole-2-carbonyl)-4H,5H,6H,7H-[1,3]thiazolo[5,4-c]pyridin-2-yl]amino}propan-1-ol] | < 5 µM | < 1 µM |
| Nc1nc2c(s1)CN(C(=O)c1cc3c(Br)c(F)ccc3[nH]1)CC2 [Example 130, 5-(4-bromo-5-fluoro-1H-indole-2-carbonyl)-4H,5H,6H,7H-[1,3]thiazolo[5,4-c]pyridin-2-amine] | < 100 µM | 1 to 10 µM |
| O=C(c1cc2c(F)ccc(F)c2[nH]1)N1CCc2nc(NC3CCOC3)sc2C1 (stereo not shown) [Example 132, 5-(4,7-difluoro-1H-indole-2-carbonyl)-N-(oxolan-3-yl)-4H,5H,6H,7H-[1,3]thiazolo[5,4-c]pyridin-2-amine] | < 5 µM | < 1 µM |
| CN(C)c1nc2c(s1)CN(C(=O)c1cc3c(F)ccc(F)c3[nH]1)CC2 [Example 133, 5-(4,7-difluoro-1H-indole-2-carbonyl)-N,N-dimethyl-4H,5H,6H,7H-[1,3]thiazolo[5,4-c]pyridin-2-amine] | < 100 µM | 1 to 10 µM |
| Cc1c(Cl)ccc2cc(C(=O)N3CCc4nc(N)sc4C3)[nH]c12 [Example 134, 5-(6-chloro-7-methyl-1H-indole-2-carbonyl)-4H,5H,6H,7H-[1,3]thiazolo[5,4-c]pyridin-2-amine] | < 5 µM | < 1 µM |
| Nc1nc2c(s1)CN(C(=O)c1cc3cc(Cl)c(Cl)cc3[nH]1)CC2 [Example 135, 5-(5,6-dichloro-1H-indole-2-carbonyl)-4H,5H,6H,7H-[1,3]thiazolo[5,4-c]pyridin-2-amine] | 5 to 10 µM | 1 to 10 µM |
| Cc1ccc2[nH]c(C(=O)N3CCc4nc(N)sc4C3)cc2c1C [Example 136, 5-(4,5-dimethyl-1H-indole-2-carbonyl)-4H,5H,6H,7H-[1,3]thiazolo[5,4-c]pyridin-2-amine] | 5 to 10 µM | 1 to 10 µM |
| Cc1cc(C)c2[nH]c(C(=O)N3CCc4nc(N)sc4C3)cc2c1 [Example 137, 5-(5,7-dimethyl-1H-indole-2-carbonyl)-4H,5H,6H,7H-[1,3]thiazolo[5,4-c]pyridin-2-amine] | < 100 µM | < 100 µM |
